Source: patent US9770469B2, “Methods of reprogramming renal cells” (Tel HaShomer Medical Research Infrastructure and Services …, priority 2009, dated 2017)

What was measured:
Format in all cases: cell-based
[1] = test system: human adult kidney cells; assay: Flow cytometry of renal progenitor surface markers after VPA; settings: 24 h 4 mM VPA, FACS
Protocol: (§1) Cell Treatment: Cells were treated for 24 hours with growth medium supplemented with 1, 2, or 4 mM VPA (Sigma) or with H2O for control sample. Otherwise, cells were treated for 24 hours with growth medium supplemented with the combination of 75 μM TSA (Sigma) and 250 μM 5-AZA (Sigma) or with 100% Ethanol and Acetic Acid (Acetic Acid: H2O 1:1) for control sample. […] 24 hours prior to harvesting VPA at a concentration of 4 mM was added to the cell culture.
(§2) Flow Cytometry: Cells were detached from culture plated with non-enzymatic cell dissociation solution (Sigma-Aldrich). Cells (1×10^5 in each reaction) were suspended in 50 μl of FACS buffer [0.5% BSA and 0.02% sodium azid in PBS (Sigma-Aldrich and Invitrogen, respectively)] and blocked with FcR Blocking Reagent (MiltenyiBiotec) and human serum (1:1) for 15 minutes. Cells were then incubated for 45 minutes with the following primary antibodies: CD24-PE, NCAM1-PE, (both from eBioscience), CD133-APC, PSA-NCAM (both from MiltenyiBiotec), FZD7-biotin, NTRK2 (both from R&D Systems) or a matching isotype control. Cells were washed with FACS buffer, and incubated for 30 minutes with a secondary antibody if needed: goat anti mouse Streptavidin-APC (BD) or goat anti mouse Alexa Fluor 647 (Invitrogen). Cell's labeling was detected using FACSCalibur (BD). Flow cytometry results were analyzed using FlowJo analysis software. Viable cells were gated by both their FSC/SSC profile and 7AAD (eBioscience) exclusion.

[2] = test system: human fetal kidney cells; assay: as above; settings: 24 h 4 mM VPA, FACS
Protocol: as §1, §2

[3] = test system: human adult kidney cells; assay: qRT-PCR gene expression after TSA/AzaC or VPA treatment
Excerpt: (§3) Tissue Samples: human tissues samples were collected according to the Helsinki requirements. Human fetal kidney cells (HFK) were collected from elective abortions at fetal gestational age ranged from 15 to 19 weeks. Normal human adult kidney cell (HAK) samples were retrieved from borders of RCC tumors from partial nephrectomy patients. Establishment of Primary Cultures from Human Kidney Tissues: Collected tissues were minced in HBSS, soaked in IMDM Medium (Invitrogen) supplemented with 0.1% collagenase II (Invitrogen). The digested tissue was then gradually forced through a 100 μm, 70 μm and 50 μm cell strainer to achieve a single cell suspension, and cultured in growth medium supplemented with FBS 10%, L-Glutamin 1%, Pen-Strep 1% and growth factors: 50 ng/ml of bFGF, 50 ng/ml of EGF and 5 ng/ml of SCF (R&D systems). Cell Treatment: […] Otherwise, cells were treated for 24 hours with growth medium supplemented with the combination of 75 μM TSA (Sigma) and 250 μM 5-AZA (Sigma) or with 100% Ethanol and Acetic Acid (Acetic Acid: H2O 1:1) for control sample. […] 24 hours prior to harvesting VPA at a concentration of 4 mM was added to the cell culture. Quantitative Reverse Transcription-PCR: Total RNA from kidney tissue cultured cells was isolated using the TRIZOL reagent (Invitrogen) according to the manufacturer's protocols. cDNA synthesis was carried out using Verso kit (Thermo scientific) with Random primers. Quantitative RT PCR was performed using an ABI7900HT sequence detection system (Perkin-Elmer/Applied Biosystems) in the presence of SYBR green (SYBR green PCR kit; Qiagen). Each analysis reaction was performed in duplicates or triplicates. GapDH was used as an endogenous control throughout all experimental analyses. Analysis was performed using the −ΔΔCt method, which determines fold changes in gene expression relative to a comparator sample.

[4] = test system: human fetal kidney cells; assay: as above
Excerpt: as §3

[5] = test system: human adult kidney cells; assay: β-catenin immunofluorescence after VPA; settings: valproic acid 24 hours, vs non-treated cells
Protocol: (§4) Immunofluorescence Staining: AK, FK (treated and untreated) human epithelial cell line and fibroblast cell line were fixed with acetone at −20° C. for seven minutes and washed with PBS. Cells were blocked with 7% human serum in PBS for 15 minutes followed by incubation with β-catenin antibody (1:150) (Chemicon international) for 60 minutes. Cells were washed and then incubated with secondary antibody with Cy-3 conjugated anti-mouse IgG (1:200) (Jackson) for 30 minutes. For nuclear staining, cells were washed with PBS containing Hochest (Dako). The presence of β-catenin was examined under a Zeiss confocal fluorescence microscope.

[6] = test system: human fetal kidney cells; assay: β-catenin immunofluorescence after VPA; settings: valproic acid 24 hours, vs non-treated cells
Protocol: as §4

[7] = HAK cells, 24 h, TSA/AzaC or VPA 1-4 mM, vs untreated control
[8] = HAK cells, 24 h, TSA/AzaC or all VPA concentrations (1, 2, 4 mM)
[9] = HFK cells, 24 h, TSA/AzaC or VPA
[10] = HFK cells, 24 h, TSA/AzaC or VPA (lesser extent than Six2)

## CCCC(CCC)C(=O)O [VPA, valproic acid]
[1]; especially in the adult kidney
  PSA-NCAM surface expression elevation: 5-10 fold
[1]; adult kidney cells
  CD133 surface expression: milder changes
  NCAM surface expression levels: significant upregulation
[2]
  CD133 surface expression: milder changes
  NCAM surface expression levels: significant upregulation
  PSA-NCAM surface expression levels: significant upregulation
[3]; HAK cells, 24 h, TSA 75 μM + 5-AZA 250 μM, or VPA 1, 2, 4 mM (dose-dependent), vs untreated control
  Six2 mRNA reinduction: five-fold
[3]; HAK cells, 24 h, TSA/AzaC or VPA
  Vimentin mRNA expression change: mostly unchanged
[3]; [7]
  Osr1 mRNA expression change (re-activation): upregulated in a dose-dependent manner
  Pax2 mRNA expression change (re-activation): mildly elevated
  Sall1 mRNA expression change (re-activation): upregulated in a dose-dependent manner
  Wt1 mRNA expression change (re-activation): reduced
[3]; [8]
  Klf4 mRNA expression change: significantly up-regulated
  Nanog mRNA expression change: significantly up-regulated
[3]; HAK cells, 24 h, TSA/AzaC, or VPA (effect at 2 mM, 4 mM)
  E-cadherin mRNA expression change: mildly elevated
[3]; HAK cells, 24 h treatment
  Oct4 mRNA expression change: remained unchanged
[3]; VPA-treated adult kidney cells
  Wnt4 mRNA levels: strong up-regulation
  β-catenin mRNA levels: elevation
[4]; HFK cells, 24 h, 4 mM VPA
  Klf4 mRNA increase: two-five
  Nanog mRNA increase: two-five
  Oct4 mRNA increase: two-five
[4]; [9]
  E-cadherin mRNA expression change: significantly elevated
  Pax2 mRNA expression change: mild elevation
  Wt1 mRNA expression change: reduction
[4]; [10]
  Osr1 mRNA expression change: dose-dependent activation
  Sall1 mRNA expression change: dose-dependent activation
[4]; HFK cells, 24 h VPA, dose-dependent
  Six2 mRNA induction: four-fold
[4]; VPA-treated fetal kidney cells
  Wnt4 mRNA levels: strong up-regulation
  β-catenin mRNA levels: elevation
[5]
  β-catenin immunofluorescence localisation: cyoplasmic and nuclear accumulation
[6]
  β-catenin immunofluorescence localisation: cyoplasmic and nuclear accumulation
